{"source": "patent US8008425B2", "about": "“Thiophene compound having sulfonyl group and process for producing the same” (Nissan Chemical Industries, Ltd., priority 2005, dated 2011)", "assay": "Solubility test", "type": "physicochemical", "conditions": "25° C., ultrasonic waves, 5 mg, solvent added 50 μL by 50 μL", "procedure": "The solubility of each of the sulfonylthiophene compounds synthesized in Examples 21 and 22 was determined under ultrasonic waves at 25° C. by adding, to aliquots (5 mg) of the sulfonylthiophene compound, tetrahydrofuran (THF), toluene, N,N-dimethylformamide (DMF), chloroform, ethyl acetate and ethanol 50 μL by 50 μL, respectively, until they were dissolved. The level of solubility was ranked in accordance with the following standards. • ⊚: Dissolved with 50 μL (concentration: 10%) • ◯: Dissolved with 100 μL (concentration: 5%) • Δ: Dissolved with 200 μL (concentration: 2.5%) • X: Not dissolved even by the addition of 500 μL (concentration: 1% or lower)"}
{"smiles": "CCCCCCCCS(=O)(=O)c1c(-c2ccc(N(c3ccccc3)c3ccccc3)cc2)sc(-c2ccc(N(c3ccccc3)c3ccccc3)cc2)c1S(=O)(=O)CCCCCCCC", "note": "[Example 21, 4,4′-{3,4-bis(octane-1-sulfonyl)-thiophene-2,5-diyl}bis(N,N-diphenylaniline)]", "values": [{"measurement": "level of solubility", "setting": "Chloroform", "value": "⊚ (Dissolved with 50 μL (concentration: 10%))"}, {"measurement": "level of solubility", "setting": "DMF", "value": "Δ (Dissolved with 200 μL (concentration: 2.5%))"}, {"measurement": "level of solubility", "setting": "Ethanol", "value": "X (Not dissolved even by the addition of 500 μL (concentration: 1% or lower))"}, {"measurement": "level of solubility", "setting": "Ethyl acetate", "value": "◯ (Dissolved with 100 μL (concentration: 5%))"}, {"measurement": "level of solubility", "setting": "THF", "value": "◯ (Dissolved with 100 μL (concentration: 5%))"}, {"measurement": "level of solubility", "setting": "Toluene", "value": "◯ (Dissolved with 100 μL (concentration: 5%))"}]}
{"smiles": "CCCCCCCCS(=O)(=O)c1cc(-c2ccc(N(c3ccccc3)c3ccccc3)cc2)sc1-c1ccc(N(c2ccccc2)c2ccccc2)cc1", "note": "[Example 22, 4,4′-{3-(octane-1-sulfonyl)-thiophene-2,5-diyl}bis(N,N-diphenylaniline)]", "values": [{"measurement": "level of solubility", "setting": "Chloroform", "value": "⊚ (Dissolved with 50 μL (concentration: 10%))"}, {"measurement": "level of solubility", "setting": "DMF", "value": "⊚ (Dissolved with 50 μL (concentration: 10%))"}, {"measurement": "level of solubility", "setting": "Ethanol", "value": "X (Not dissolved even by the addition of 500 μL (concentration: 1% or lower))"}, {"measurement": "level of solubility", "setting": "Ethyl acetate", "value": "⊚ (Dissolved with 50 μL (concentration: 10%))"}, {"measurement": "level of solubility", "setting": "THF", "value": "⊚ (Dissolved with 50 μL (concentration: 10%))"}, {"measurement": "level of solubility", "setting": "Toluene", "value": "⊚ (Dissolved with 50 μL (concentration: 10%))"}]}
